Measurements reported in patent US6831190B1, “Guanidinomethyl cyclohexane carboxylic acid ester derivatives” (Teikoku Chemical Industries Co., Ltd., priority 1994, dated 2004).

Assays:
Assay type in all cases: cell-based
[1] = system: Helicobacter pylori ATCC 43504; assay: MIC, agar plating dilution (standard method of Japanese Chemotherapy Academy); conditions: Objected Strain 1: Helicobacter pylori ATCC 43504
Procedure: (§1) 1. Minimum Inhibitory Concentration (MIC) was measured in accordance with the standard method of Japanese Chemotherapy Academy (Chemotherapy, 29: 76-79, 1981). Sensitivity was measured with an agar plating dilution using Brain-Heart Infusion agar (Difco Co.) which was added 0.1% of cyclodextrin. […] of the solutions of the compounds which were obtained in examples of the present invention was prepared by dissolving in dimethylsulfoxide. […] Each of 1 ml of those prepared solutions was dispensed in share, after sterilization, 9 ml of sensitivity measuring medium which is kept at 50° C. was added to each, and they were sufficiently mixed. The mixture was used as a plate for measuring sensitivity. Brain Heart Infusion agar medium (Difco Co.), which was added 0.1% of cyclodextrin, was used as bacteria growing medium, and was cultured under microair at 37° C. for three days, and the number of bacteria thereof was adjusted to about 106/ml. This was used as a bacterial solution for inoculation. The medium was painted in each square about 2 cm with nichromic line loop. The medium was cultured under microair for three days at 37° C.

[2] = system: Helicobacter pylori ATCC 43629; assay: as above; conditions: Objected Strain 2: Helicobacter pylori ATCC 43629
Procedure: as §1

[3] = system: Escherichia coli NIH JC-2; assay: MIC, standard method of Japanese Chemotherapy Academy; conditions: for MIC: Objected Strain 3: Escherichia coli NIH JC-2
Procedure: (§2) 1. Minimum Inhibitory Concentration (MIC) was measured in accordance with the standard method of Japanese Chemotherapy Academy (Chemotherapy, 29: 76-79, 1981).

[4] = system: Helicobacter pylori No. 1; assay: MIC, agar plating dilution, clinical segregation strain; conditions: Strain 4: Helicobacter pylori No. 1
Procedure: (§3) Minimum Inhibitory Concentration (MIC) was measured in accordance with the standard method of Japanese Chemotherapy Academy (Chemotherapy, 29: 76-79, 1981). Sensitivity was measured with an agar plating dilution using Brain-Heart Infusion agar (Difco Co.) which was added 0.1% of cyclodextrin. […] of the solutions of the compounds which were obtained in examples of the present invention was prepared by dissolving in dimethylsulfoxide. […] Each of 1 ml of those prepared solutions was dispensed in share, after sterilization, 9 ml of sensitivity measuring medium which is kept at 50° C. was added to each, and they were sufficiently mixed. The mixture was used as a plate for measuring sensitivity. Brain Heart Infusion agar medium (Difco Co.), which was added 0.1% of cyclodextrin, was used as bacteria growing medium, and was cultured under microair at 37° C. for three days, and the number of bacteria thereof was adjusted to about 106/ml. This was used as a bacterial solution for inoculation. The medium was painted in each square about 2 cm with nichromic line loop. The medium was cultured under microair for three days at 37° C. […] The each result is shown at Table 4.

[5] = system: Helicobacter pylori No. 2; assay: as above; conditions: Strain 5: Helicobacter pylori No. 2
Procedure: as §3

[6] = system: Helicobacter pylori No. 3; assay: as above; conditions: Strain 6: Helicobacter pylori No. 3
Procedure: as §3

[7] = system: Helicobacter pylori No. 4; assay: as above; conditions: Strain 7: Helicobacter pylori No. 4
Procedure: as §3

[8] = system: Bacillus subtilis ATCC 6633; assay: MIC, standard method of Japanese Chemotherapy Academy; conditions: for MIC against bacillus subcillus ATCC 6633: standard method of Japanese Chemotherapy Academy; for MIC: Strain 13: Bacillus subtilis ATCC 6633
Procedure: as §2
(§4) And MIC of the compounds of Example 3, 36, 8, 14, 17, 21, 41 and 45 were measured.

[9] = system: Staphylococcus aureus 209PJC; assay: as above; conditions: Strain 11: Staphylococcus aureus 209PJC
Procedure: as §2, §4

[10] = system: Staphylococcus aureus ATCC 6538; assay: as above; conditions: Strain 12: Staphylococcus aureus ATCC 6538
Procedure: as §2, §4

[11] = system: Staphylococcus aureus No. 2 (MRSA); assay: as above; conditions: Strain 14: Staphylococcus aureus No. 2 (MRSA)
Procedure: as §2, §4

[12] = system: Helicobacter pylori No. 19; assay: MIC, agar plating dilution, clinical segregation strain; conditions: Strain 8: Helicobacter pylori No. 19
Procedure: as §3

[13] = system: Helicobacter pylori No. 20; assay: as above; conditions: Strain 9: Helicobacter pylori No. 20
Procedure: as §3

[14] = system: Helicobacter pylori No. 28; assay: as above; conditions: Strain 10: Helicobacter pylori No. 28
Procedure: as §3

Compound | MIC [1] [µg/mL] | MIC [2] [µg/mL] | MIC [3] [µg/mL] | MIC [4] [µg/mL] | MIC [5] [µg/mL] | MIC [6] [µg/mL] | MIC [7] [µg/mL] | MIC against bacillus subcillus ATCC 6633 [8] [µg/mL] | MIC [8] [µg/mL] | MIC [9] [µg/mL] | MIC [10] [µg/mL] | MIC [11] [µg/mL] | MIC [12] [µg/mL] | MIC [13] [µg/mL] | MIC [14] [µg/mL] | MIC against Escherichia coli. NHJC-2 ([3]; standard method of Japanese Chemotherapy Academy) [µg/mL]
Cl.N=C(N)NC[C@H]1CC[C@H](C(=O)Oc2ccc(-c3ccc(C(=O)OCCc4ccccc4)cc3)cc2)CC1 [Example 26, trans-4-guanidinomethyl cyclohexane carboxylic acid[4-[4-(2-phenylethyloxycarbonyl)phenyl]phenylester].hydrochloride] | 0.39 | 0.78 | >25 | 0.20 | 0.39 | 0.10 | 0.20 | > 25 |  |  |  |  |  |  |  | 
Cl.N=C(N)NC[C@H]1CC[C@H](C(=O)Oc2ccc(-c3ccc(C(=O)OCc4ccccc4)cc3)cc2)CC1 [Example 3, trans-4-guanidinomethyl cyclohexane carboxylic acid [4-(4-benzyloxycarbonylphenyl)phenylester].hydrochloride] | 0.78 | 0.39 | >25 | 0.20 | 0.39 | 0.10 | 0.39 | > 25 | 25 | 3.13 | 6.25 | 3.13 |  |  |  | 
Cc1cccc(COC(=O)c2ccc(-c3ccc(OC(=O)[C@H]4CC[C@H](CNC(=N)N)CC4)cc3)cc2)c1.Cl [Example 44, trans-4-guanidinomethyl cyclohexane carboxylic acid[4-[4-(3-methylbenzyloxycarbonyl)phenyl]phenylester].hydrochloride] | 0.20 | 0.20 | >25 | 0.39 | 0.39 | 0.20 | 0.78 |  |  |  |  |  | 0.20 | 0.20 | 0.39 | 
Cc1ccc(CCOC(=O)c2ccc(-c3ccc(OC(=O)[C@H]4CC[C@H](CNC(=N)N)CC4)cc3)cc2)cc1.Cl [Example 46, trans-4-guanidinomethyl cyclohexane carboxylic acid[4-[4-[2-(4-methylphenyl)ethyloxycarbonyl)phenyl]phenylester].hydrochloride] | 0.78 | 0.78 | >25 | 0.39 | 0.39 | 0.20 | 3.13 |  |  |  |  |  | 0.39 | 0.20 | 0.39 | 
Cl.N=C(N)NC[C@H]1CC[C@H](C(=O)Oc2ccc(-c3ccc(C(=O)OCc4ccccc4F)cc3)cc2)CC1 [Example 19, trans-4-guanidinomethyl cyclohexane carboxylic acid [4-[4-(2-fluorobenzyloxycarbonyl)phenyl]phenylester].hydrochloride] | 0.39 | 0.39 | >25 | 0.20 | 0.78 | 0.20 | 0.39 | > 25 |  |  |  |  |  |  |  | 
CCOC(=O)c1ccc(Oc2ccc(OC(=O)[C@H]3CC[C@H](CNC(=N)N)CC3)cc2)cc1.Cl [Example 36, trans-4-guanidinomethyl cyclohexane carboxylic acid[4(4-ethoxycarbonylphenyloxy)phenylester].hydrochloride] | 6.25 | 6.25 | >25 |  |  |  |  |  | 25 | 6.25 |  | 6.25 |  |  |  | 
COc1ccc(COC(=O)c2ccc(-c3ccc(OC(=O)[C@H]4CC[C@H](CNC(=N)N)CC4)cc3)cc2)cc1.Cl [Example 18, trans-4-guanidinomethyl cyclohexane carboxylic acid [4-[4-(4-methoxybenzyloxy carbonyl)phenyl]phenylester].hydrochloride] | 0.78 | 0.78 | >25 | 0.20 | 0.78 | 0.20 | 0.39 | 25 |  |  |  |  |  |  |  | 
Cc1ccc(COC(=O)c2ccc(-c3ccc(OC(=O)[C@H]4CC[C@H](CNC(=N)N)CC4)c(Br)c3)cc2)cc1.Cl [Example 24, trans-4-guanidinomethyl cyclohexane carboxylic acid[2-bromo-4-[4-(4-methylbenzyloxycarbonyl)phenyl]phenylester].hydrochloride] | 0.39 | 0.78 | >25 |  | 0.39 | 0.20 | 0.39 | > 25 |  |  |  |  |  |  |  | 
4-[4-(trans-4-guanidinomethyl cyclohexylcarbonyloxy)phenyl]benzoate.methansulfonate [Example 28] |  |  |  |  |  |  |  | > 25 |  |  |  |  |  |  |  | > 25
CCCC[C@H]1CC[C@H](COC(=O)c2ccc(-c3ccc(OC(=O)[C@H]4CC[C@H](CNC(=N)N)CC4)cc3)cc2)CC1.Cl [Example 42, trans-4-guanidinomethyl cyclohexane carboxylic acid[4-[4-(trans-4-n-butylcyclohexylmethloxycarbonyl)phenyl]phenylester].hydrochloride] | 0.39 | 1.56 | >25 | 0.39 | 1.56 | 0.20 | 0.39 |  |  |  |  |  |  |  |  | 
Cl.N=C(N)NC[C@H]1CC[C@H](C(=O)Oc2ccc(-c3ccc(C(=O)OCC4CCCCC4)cc3)cc2)CC1 [Example 23, trans-4-guanidinomethyl cyclohexane carboxylic acid [4-(4-cyclohexylmethyloxy carbonylphenyl)phenylester].hydrochloride] | 0.20 | 0.39 | >25 | 0.20 | 0.39 | 0.20 | 0.39 | 25 |  |  |  |  |  |  |  | 
Cc1ccccc1COC(=O)c1ccc(-c2ccc(OC(=O)[C@H]3CC[C@H](CNC(=N)N)CC3)cc2)cc1.Cl [Example 43, trans-4-guanidinomethyl cyclohexane carboxylic acid[4-[4-(2-methylbenzyloxycarbonyl)phenyl]phenylester].hydrochloride] | 0.20 | 0.39 | >25 | 0.20 | 0.20 | 0.20 | 0.78 |  |  |  |  |  | 0.10 | 0.39 | 0.39 | 
Cc1ccc(COC(=O)c2ccc(-c3ccc(OC(=O)[C@H]4CC[C@H](CNC(=N)N)CC4)cc3)cc2)c(C)c1.Cl [Example 25, trans-4-guanidinomethyl cyclohexane carboxylic acid[4-[4-(2,4-dimethylbenzyloxycarbonyl)phenyl]phenylester].hydrochloride] | 0.39 | 0.78 | >25 | 0.39 | 0.39 | 0.20 | 0.39 | > 25 |  |  |  |  |  |  |  | 
